One test concerns WNT signaling (TopGFP reporter in Human Colonic Epithelial Cells (HCEC)). Put plainly: WNT Reporter Assay (TopGFP reporter). To be noted: Homo sapiens, stimulated with 10 μM CHIR99021, 24 hours, TopGFP/mCherry. Type of test: cell-based. (A reporter such as luciferase makes a cellular process visible.)
Experimental: WNT Reporter Assay: Human Colonic Epithelial Cells (HCEC) were cultured using 1×DMEM supplemented with 1% penicillin/streptomycin, 1% Glutamax, and 10% fetal bovine serum in 5% CO2 at 37° C. These cells were previously engineered to express the TopGFP reporter (Addgene #24304) using second generation lentiviral techniques. For the Wnt reporter assay, cells were seeded at 2000 cells per well in a 384-well black screenstar imaging microplates (Greiner #781866) and allowed to adhere overnight. The following day cells were stimulated to induce the Wnt pathway using 10 μM CHIR99021 (Selleck #S1263). […] Cells were incubated for 24 hours before fixing for 30 minutes with 4% paraformaldehyde/sucrose solution. Cells were permeabilized with 0.1% triton-x in PBS for 10 minutes and stained for DAPI for 30 minutes. Plates were imaged on a Nikon Ti2 Eclipse fluorescent microscope for DAPI, GFP, and mCherry. Using Nikon Elements software for analysis, nuclei were segmented based on DAPI and mean object intensity per cell for both TopGFP and the internal control (mCherry) was measured. To calculate the amount of Wnt activity, we took the mean intensity of TopGFP and divided it by the mean intensity of mCherry per cell to normalize individual cells. Curves and EC50s were plotted and calculated using Graphpad Prism software.
For the molecule `CC(=O)N1CCN(c2ncnc3ccc(-c4ccnc(N)c4)cc23)CC1` [Compound 1, 1-(4-(6-(2-aminopyridin-4-yl)quinazolin-4-yl)piperazin-1-yl)ethan-1-one], the EC50 was in the range of 0.1 to 1 µM.

Turning to `Nc1cc(-c2ccc3ncnc(N4CCN(c5ccccc5)CC4)c3c2)ccn1` [Compound 2, 4-(4-(4-phenylpiperazin-1-yl)quinazolin-6-yl)pyridin-2-amine], the EC50 was less than 0.1 µM.

Take `Nc1cc(-c2ccc3ncnc(N4CCN(c5ccccn5)CC4)c3c2)ccn1` [Compound 3, 4-(4-(4-(pyridin-2-yl)piperazin-1-yl)quinazolin-6-yl)pyridin-2-amine]: the concentration giving a half-maximal response (EC50) was less than 0.1 µM.

As for `Nc1cc(-c2ccc3ncnc(N4CCN(c5ccccc5)CC4)c3n2)ccn1` [Compound 4, 4-(4-(4-phenylpiperazin-1-yl)pyrido[3,2-d]pyrimidin-6-yl)pyridin-2-amine], the concentration giving a half-maximal response (EC50) was less than 0.1 µM.

Molecule `Nc1cc(-c2ccc3ncnc(N4CCN(c5ccccn5)CC4)c3n2)ccn1` [Compound 5, 4-(4-(4-(pyridin-2-yl)piperazin-1-yl)pyrido[3,2-d]pyrimidin-6-yl)pyridin-2-amine] registered an EC50 of less than 0.1 µM.

In the case of `Nc1cc(-c2ccc3ncnc(N4CCN(c5ccncc5)CC4)c3c2)ccn1` [Compound 6, 4-(4-(4-(pyridin-4-yl)piperazin-1-yl)quinazolin-6-yl)pyridin-2-amine], the EC50 lay within 0.1 to 1 µM.

In turn, `Cn1cc(-c2ccc3ncnc(N4CCN(c5ccccn5)CC4)c3c2)cn1` [Compound 7, 6-(1-methyl-1H-pyrazol-4-yl)-4-(4-(pyridin-2-yl)piperazin-1-yl)quinazoline] registered a concentration for a half-maximal effect (EC50) of 0.1 to 1 µM.

As to `FC(F)c1cc(-c2ccc3ncnc(N4CCN(c5ccccn5)CC4)c3c2)ccn1` [Compound 8, 6-(2-(difluoromethyl)pyridin-4-yl)-4-(4-(pyridin-2-yl)piperazin-1-yl)quinazoline], the EC50 lay within 0.1 to 1 µM.

In turn, `Nc1cc(-c2ccc3ncnc(N4CCN(c5ccncn5)CC4)c3c2)ccn1` [Compound 9, 4-(4-(4-(pyrimidin-4-yl)piperazin-1-yl)quinazolin-6-yl)pyridin-2-amine] came in with an EC50 of 0.1 to 1 µM.

In turn, `Nc1cc(-c2ccc3ncnc(N4CCN(c5ncccn5)CC4)c3c2)ccn1` [Compound 10, 4-(4-(4-(pyrimidin-2-yl)piperazin-1-yl)quinazolin-6-yl)pyridin-2-amine] came in with an EC50 of 0.1 to 1 µM.

With `Nc1cc(-c2ccc3ncnc(N4CCN(C5COC5)CC4)c3c2)ccn1` [Compound 11, 4-(4-(4-(oxetan-3-yl)piperazin-1-yl)quinazolin-6-yl)pyridin-2-amine], the EC50 was greater than 1 µM.

In the case of `Cc1cc(-c2ccc3ncnc(N4CCN(c5ccccn5)CC4)c3c2)ccn1` [Compound 12, 6-(2-methylpyridin-4-yl)-4-(4-(pyridin-2-yl)piperazin-1-yl)quinazoline], the EC50 was greater than 1 µM.

`Fc1cc(-c2ccc3ncnc(N4CCN(c5ccccn5)CC4)c3c2)ccn1` [Compound 13, 6-(2-fluoropyridin-4-yl)-4-(4-(pyridin-2-yl)piperazin-1-yl)quinazoline]: the concentration giving a half-maximal response (EC50) is greater than 1 µM.

The molecule `c1ccc(N2CCN(c3ncnc4ccc(-c5cn[nH]c5)cc34)CC2)nc1` [Compound 14, 6-(1H-pyrazol-4-yl)-4-(4-(pyridin-2-yl)piperazin-1-yl)quinazoline] yielded an EC50 of less than 0.1 µM.

Molecule `Nc1cc(-c2ccc3ncnc(N4CCN(c5ccccc5F)CC4)c3c2)ccn1` [Compound 15, 4-(4-(4-(2-fluorophenyl)piperazin-1-yl)quinazolin-6-yl)pyridin-2-amine] yielded an EC50 of 0.1 to 1 µM.

`Nc1cc(-c2ccc3ncnc(N4CCN(c5ccc(C(F)(F)F)cn5)CC4)c3n2)ccn1` [Compound 16, 4-(4-(4-(5-(trifluoromethyl)pyridin-2-yl)piperazin-1-yl)pyrido[3,2-d]pyrimidin-6-yl)pyridin-2-amine] had an EC50 of less than 0.1 µM.

For `c1ccc(N2CCN(c3ncnc4ccc(-c5c[nH]c6ncccc56)cc34)CC2)nc1` [Compound 17, 4-(4-(pyridin-2-yl)piperazin-1-yl)-6-(1H-pyrrolo[2,3-b]pyridin-3-yl)quinazoline], the 50% effective concentration (EC50) was less than 0.1 µM.

With `Nc1cc(-c2ccc3ncnc(N4CCN(c5ccccc5F)CC4)c3n2)ccn1` [Compound 19, 4-(4-(4-(2-fluorophenyl)piperazin-1-yl)pyrido[3,2-d]pyrimidin-6-yl)pyridin-2-amine], the EC50 was less than 0.1 µM.

Take `Nc1cc(-c2ccc3ncnc(N4CCN(c5ccc(F)cc5)CC4)c3n2)ccn1` [Compound 24, 4-(4-(4-(4-fluorophenyl)piperazin-1-yl)pyrido[3,2-d]pyrimidin-6-yl)pyridin-2-amine]: the EC50 is less than 0.1 µM.

For the molecule `Nc1cc(-c2ccc3nccc(N4CCN(c5ccccc5)CC4)c3c2)ccn1` [Compound 25, 4-(4-(4-phenylpiperazin-1-yl)quinolin-6-yl)pyridin-2-amine], the concentration for a half-maximal effect (EC50) is less than 0.1 µM.

Consider `c1ccc(N2CCN(c3ccnc4ccc(-c5cn[nH]c5)cc34)CC2)cc1` [Compound 26, 4-(4-phenylpiperazin-1-yl)-6-(1H-pyrazol-4-yl)quinoline], for which the EC50 was less than 0.1 µM.

Molecule `Nc1cc(-c2ccc3ncnc(N4CCN(c5ccc(O)cc5)CC4)c3c2)ccn1` [Compound 27, 4-(4-(6-(2-aminopyridin-4-yl)quinazolin-4-yl)piperazin-1-yl)phenol] displayed a half-maximal effective concentration (EC50) of 0.1 to 1 µM.

Molecule `Nc1cc(-c2ccc3ncnc(N4CCN(c5ccc(O)cc5)CC4)c3n2)ccn1` [Compound 28, 4-(4-(6-(2-aminopyridin-4-yl)pyrido[3,2-d]pyrimidin-4-yl)piperazin-1-yl)phenol] came in with a concentration giving a half-maximal response (EC50) of less than 0.1 µM.

`Nc1cc(-c2ccc3nccc(N4CCN(c5ccccn5)CC4)c3c2)ccn1` [Compound 29] showed a concentration for a half-maximal effect (EC50) of less than 0.1 µM.

Molecule `Nc1cc(-c2ccc3nccc(N4CCN(c5ccc(F)cc5)CC4)c3c2)ccn1` [Compound 30, 4-(4-(4-(4-fluorophenyl)piperazin-1-yl)quinolin-6-yl)pyridin-2-amine] had a half-maximal effective concentration (EC50) of less than 0.1 µM.

Molecule `Nc1cc(-c2ccc3ncnc(N4CCN(c5ccc(F)cc5)CC4)c3c2)ccn1` [Compound 31, 4-(4-(4-(4-fluorophenyl)piperazin-1-yl)quinazolin-6-yl)pyridin-2-amine] yielded a half-maximal effective concentration (EC50) of 0.1 to 1 µM.

In turn, `O=C1CN(c2ncnc3ccc(-c4cn[nH]c4)cc23)CCN1c1ccccc1` [Compound 32, 4-(6-(1H-pyrazol-4-yl)quinazolin-4-yl)-1-phenylpiperazin-2-one] came in with an EC50 of less than 0.1 µM.

Take `Nc1cc(-c2ccc3nccc(N4CCN(c5ccccc5F)CC4)c3c2)ccn1` [Compound 33, 4-(4-(4-(2-fluorophenyl)piperazin-1-yl)quinolin-6-yl)pyridin-2-amine]: the concentration giving a half-maximal response (EC50) is 0.1 to 1 µM.

Consider `Cc1ccc(N2CCN(c3ccnc4ccc(-c5ccnc(N)c5)cc34)CC2)c(C)c1` [Compound 34, 4-(4-(4-(2,4-dimethylphenyl)piperazin-1-yl)quinolin-6-yl)pyridin-2-amine], for which the EC50 fell in the range of 0.1 to 1 µM.

Molecule `COc1cc2c(cc1OC)CN(c1ncnc3ccc(-c4ccnc(N)c4)cc13)CC2` [Compound 35, 4-(4-(6,7-dimethoxy-3,4-dihydroisoquinolin-2(1H)-yl)quinazolin-6-yl)pyridin-2-amine] gave an EC50 of 0.1 to 1 µM.

The molecule `Fc1ccc(CN2CCCN(c3ncnc4ccc(-c5cn[nH]c5)cc34)CC2)cc1` [Compound 36, 4-(4-(4-fluorobenzyl)-1,4-diazepan-1-yl)-6-(1H-pyrazol-4-yl)quinazoline] displayed an EC50 of less than 0.1 µM.

For the molecule `Nc1cc(-c2ccc3ncnc(N4CCN(c5cccnc5)CC4)c3c2)ccn1` [Compound 37, 4-(4-(4-(pyridin-3-yl)piperazin-1-yl)quinazolin-6-yl)pyridin-2-amine], the 50% effective concentration (EC50) was less than 0.1 µM.

`Nc1cc(-c2ccc3ncnc(N4CCN(c5ccccc5)C(=O)C4)c3c2)ccn1` [Compound 38, 4-(6-(2-aminopyridin-4-yl)quinazolin-4-yl)-1-phenylpiperazin-2-one]: the EC50 is 0.1 to 1 µM.

On to `Nc1cc(-c2ccc3ncnc(N4CCN(c5ccc(F)cc5F)CC4)c3c2)ccn1` [Compound 39, 4-(4-(4-(2,4-difluorophenyl)piperazin-1-yl)quinazolin-6-yl)pyridin-2-amine], for which the EC50 lay in the range of 0.1 to 1 µM.

With `Fc1ccccc1N1CCN(c2ncnc3ccc(-c4cnoc4)nc23)CC1` [Compound 40, 4-(4-(4-(2-fluorophenyl)piperazin-1-yl)pyrido[3,2-d]pyrimidin-6-yl)isoxazole], the EC50 is 0.1 to 1 µM.

Regarding `Nc1cc(-c2ccc3ncnc(N4CCCN(Cc5ccc(F)cc5)CC4)c3c2)ccn1` [Compound 41, 4-(4-(4-(4-fluorobenzyl)-1,4-diazepan-1-yl)quinazolin-6-yl)pyridin-2-amine], the concentration for a half-maximal effect (EC50) is 0.1 to 1 µM.

The molecule `Cn1cc(-c2ccc3ncnc(N4CCN(Cc5ccc(F)cc5)CC4)c3c2)cn1` [Compound 42, 4-(4-(4-fluorobenzyl)piperazin-1-yl)-6-(1-methyl-1H-pyrazol-4-yl)quinazoline] registered an EC50 greater than 1 µM.

Molecule `Nc1cc(-c2ccc3ncnc(N4CCN(Cc5ccc(F)cc5)CC4)c3c2)ccn1` [Compound 43, 4-(4-(4-(4-fluorobenzyl)piperazin-1-yl)quinazolin-6-yl)pyridin-2-amine] displayed an EC50 of 0.1 to 1 µM.

The test is the same for the next values; noted with them: stimulated with 10 μM CHIR99021, 24 hours, TopGFP/mCherry.
Consider “4-(4-(2-fluorophenyl)piperazin-1-yl)-6-(1-methyl-1H-pyrazol-3-yl)pyrido[3,2-d]pyrimidine [Compound 20]”, for which the EC50 was greater than 1 µM.

In turn, “4-(4-(2-fluorophenyl)piperazin-1-yl)-6-(1H-pyrazol-3-yl)pyrido[3,2-d]pyrimidine [Compound 23]” showed a 50% effective concentration (EC50) of less than 0.1 µM.

In turn, “6-(1-methyl-1H-pyrazol-3-yl)-4-(4-(5-(trifluoromethyl)pyridin-2-yl)piperazin-1-yl)pyrido[3,2-d]pyrimidine [Compound 21]” returned an EC50 greater than 1 µM.

In turn, “6-(1H-pyrazol-3-yl)-4-(4-(5-(trifluoromethyl)pyridin-2-yl)piperazin-1-yl)pyrido[3,2-d]pyrimidine [Compound 22]” registered an EC50 of less than 0.1 µM.

In the case of “6-(1H-pyrazol-3-yl)-4-(4-(pyridin-2-yl)piperazin-1-yl)pyrido[3,2-d]pyrimidine [Compound 18]”, the concentration giving a half-maximal response (EC50) is less than 0.1 µM.

The term EC50 denotes the concentration giving half of the maximal effect. Read a high EC50 as a less potent agent.
